Experimental data: PubChem BioAssay (NCI)
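Each compound was tested at five concentrations against cells in 96-well plates for 48 hours. Definition used: TGI = concentration required for complete inhibition of growth.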

Legend:
Assay in all cases: growth of human tumour cells (NCI), 48 h
[1] = system: 786-0 renal
[2] = system: A498 renal
[3] = system: A549 NSCLC
[4] = system: ACHN renal
[5] = system: BT-549 breast
[6] = system: CAKI-1 renal
[7] = system: COLO 205 colon
[8] = system: DU-145 prostate
[9] = system: EKVX NSCLC
[10] = system: HCC-2998 colon
[11] = system: HCT-116 colon
[12] = system: HCT-15 colon
[13] = system: HL-60(TB) leukemia
[14] = system: HOP-62 NSCLC
[15] = system: HOP-92 NSCLC
[16] = system: HS 578T breast
[17] = system: HT29 colon
[18] = system: IGROV1 ovarian
[19] = system: K-562 leukemia
[20] = system: KM12 colon
[21] = system: LOX IMVI melanoma
[22] = system: M14 melanoma
[23] = system: MALME-3M melanoma
[24] = system: MCF7 breast
[25] = system: MDA-MB-231 breast
[26] = system: MDA-MB-435
[27] = system: MDA-N
[28] = system: MOLT-4 leukemia
[29] = system: NCI-H226 lung
[30] = system: NCI-H460 lung
[31] = system: NCI-H522 lung
[32] = system: NCI/ADR-RES ovarian
[33] = system: OVCAR-3 ovarian
[34] = system: OVCAR-4 ovarian
[35] = system: OVCAR-5 ovarian
[36] = system: OVCAR-8 ovarian
[37] = system: PC-3 prostate
[38] = system: RXF 393 renal
[39] = system: SF-268 CNS
[40] = system: SF-295 CNS
[41] = system: SF-539 CNS
[42] = system: SK-MEL-2 melanoma
[43] = system: SK-MEL-28 melanoma
[44] = system: SK-MEL-5 melanoma
[45] = system: SK-OV-3 ovarian
[46] = system: SN12C renal
[47] = system: SNB-19 CNS
[48] = system: SR leukemia
[49] = system: SW-620 colon
[50] = system: T-47D breast
[51] = system: TK-10 renal
[52] = system: U251 CNS
[53] = system: UACC-257 melanoma
[54] = system: UACC-62 melanoma
[55] = system: UO-31 renal
[56] = system: CCRF-CEM leukemia
[57] = system: NCI-H23 lung
[58] = system: RPMI-8226 leukemia
[59] = system: SNB-75 CNS

## Cc1ccc(S(=O)(=O)C2=C([Si](C)(C)C)C3CC2[C@@H]2C4C=CC(CC4)[C@H]32)cc1 (stereo partly specified)
[1]
  TGI: > 100 µM
[2]
  TGI: > 100 µM
[3]
  TGI: > 100 µM
[4]
  TGI: > 100 µM
[5]
  TGI: > 100 µM
[6]
  TGI: > 100 µM
[7]
  TGI: > 100 µM
[8]
  TGI: > 100 µM
[9]
  TGI: > 100 µM
[10]
  TGI: > 100 µM
[11]
  TGI: > 100 µM
[12]
  TGI: > 100 µM
[13]
  TGI: > 100 µM
[14]
  TGI: > 100 µM
[15]
  TGI: > 100 µM
[16]
  TGI: > 100 µM
[17]
  TGI: > 100 µM
[18]
  TGI: > 100 µM
[19]
  TGI: > 100 µM
[20]
  TGI: > 100 µM
[21]
  TGI: > 100 µM
[22]
  TGI: > 100 µM
[23]
  TGI: > 100 µM
[24]
  TGI: > 100 µM
[25]
  TGI: > 100 µM
[26]
  TGI: > 100 µM
[27]
  TGI: > 100 µM
[28]
  TGI: > 100 µM
[29]
  TGI: > 100 µM
[30]
  TGI: > 100 µM
[31]
  TGI: > 100 µM
[32]
  TGI: > 100 µM
[33]
  TGI: > 100 µM
[34]
  TGI: > 100 µM
[35]
  TGI: > 100 µM
[36]
  TGI: > 100 µM
[37]
  TGI: > 100 µM
[38]
  TGI: > 100 µM
[39]
  TGI: > 100 µM
[40]
  TGI: > 100 µM
[41]
  TGI: 88 µM
[42]
  TGI: 77.4 µM
[43]
  TGI: > 100 µM
[44]
  TGI: > 100 µM
[45]
  TGI: > 100 µM
[46]
  TGI: > 100 µM
[47]
  TGI: 76.1 µM
[48]
  TGI: > 100 µM
[49]
  TGI: > 100 µM
[50]
  TGI: > 100 µM
[51]
  TGI: 99.2 µM
[52]
  TGI: > 100 µM
[53]
  TGI: > 100 µM
[54]
  TGI: > 100 µM
[55]
  TGI: > 100 µM

## CC1C2CC(CC23OCC(CCl)O3)C1(C)C (stereo unspecified)
[1]
  TGI: > 100 µM
[2]
  TGI: > 100 µM
[3]
  TGI: > 100 µM
[4]
  TGI: > 100 µM
[5]
  TGI: > 100 µM
[6]
  TGI: > 100 µM
[56]
  TGI: > 100 µM
[7]
  TGI: > 100 µM
[8]
  TGI: > 100 µM
[9]
  TGI: > 100 µM
[10]
  TGI: > 100 µM
[11]
  TGI: > 100 µM
[12]
  TGI: > 100 µM
[13]
  TGI: > 100 µM
[14]
  TGI: > 100 µM
[15]
  TGI: > 100 µM
[16]
  TGI: > 100 µM
[17]
  TGI: > 100 µM
[18]
  TGI: > 100 µM
[19]
  TGI: > 100 µM
[20]
  TGI: > 100 µM
[21]
  TGI: > 100 µM
[22]
  TGI: > 100 µM
[23]
  TGI: > 100 µM
[24]
  TGI: > 100 µM
[25]
  TGI: > 100 µM
[26]
  TGI: > 100 µM
[27]
  TGI: > 100 µM
[28]
  TGI: > 100 µM
[29]
  TGI: > 100 µM
[57]
  TGI: > 100 µM
[30]
  TGI: > 100 µM
[31]
  TGI: > 100 µM
[32]
  TGI: > 100 µM
[33]
  TGI: > 100 µM
[34]
  TGI: > 100 µM
[36]
  TGI: > 100 µM
[37]
  TGI: > 100 µM
[58]
  TGI: > 100 µM
[38]
  TGI: > 100 µM
[39]
  TGI: > 100 µM
[40]
  TGI: > 100 µM
[41]
  TGI: > 100 µM
[43]
  TGI: > 100 µM
[44]
  TGI: > 100 µM
[45]
  TGI: > 100 µM
[46]
  TGI: > 100 µM
[47]
  TGI: > 100 µM
[59]
  TGI: > 100 µM
[48]
  TGI: > 100 µM
[49]
  TGI: > 100 µM
[50]
  TGI: > 100 µM
[51]
  TGI: > 100 µM
[53]
  TGI: > 100 µM
[54]
  TGI: > 100 µM
[55]
  TGI: > 100 µM

## COc1ccc(CNc2nc3ccccc3nc2C(=O)O)cc1OC
[1]
  TGI: > 100 µM
[2]
  TGI: > 100 µM
[3]
  TGI: > 100 µM
[4]
  TGI: > 100 µM
[5]
  TGI: > 100 µM
[6]
  TGI: > 100 µM
[56]
  TGI: > 100 µM
[7]
  TGI: > 100 µM
[8]
  TGI: > 100 µM
[9]
  TGI: > 100 µM
[10]
  TGI: > 100 µM
[11]
  TGI: > 100 µM
[12]
  TGI: > 100 µM
[13]
  TGI: > 100 µM
[14]
  TGI: > 100 µM
[15]
  TGI: > 100 µM
[16]
  TGI: > 100 µM
[17]
  TGI: > 100 µM
[18]
  TGI: > 100 µM
[19]
  TGI: > 100 µM
[20]
  TGI: > 100 µM
[21]
  TGI: > 100 µM
[23]
  TGI: > 100 µM
[24]
  TGI: > 100 µM
[25]
  TGI: > 100 µM
[26]
  TGI: > 100 µM
[27]
  TGI: > 100 µM
[28]
  TGI: > 100 µM
[29]
  TGI: > 100 µM
[57]
  TGI: > 100 µM
[30]
  TGI: > 100 µM
[31]
  TGI: > 100 µM
[32]
  TGI: > 100 µM
[33]
  TGI: > 100 µM
[34]
  TGI: > 100 µM
[36]
  TGI: > 100 µM
[37]
  TGI: > 100 µM
[58]
  TGI: > 100 µM
[38]
  TGI: > 100 µM
[39]
  TGI: > 100 µM
[40]
  TGI: > 100 µM
[41]
  TGI: > 100 µM
[43]
  TGI: > 100 µM
[44]
  TGI: > 100 µM
[45]
  TGI: > 100 µM
[46]
  TGI: > 100 µM
[59]
  TGI: > 100 µM
[48]
  TGI: > 100 µM
[49]
  TGI: > 100 µM
[50]
  TGI: > 100 µM
[51]
  TGI: > 100 µM
[52]
  TGI: > 100 µM
[53]
  TGI: > 100 µM
[54]
  TGI: > 100 µM
[55]
  TGI: > 100 µM
